Values after ≈ are worked out from the molar mass of the structure shown. Like-named read-outs stand apart in the source and are kept apart here.

We go through six compounds from publication PMC10394672, “Crystal structure of dihydrofolate reductase from the emerging pathogenic fungus Candida auris” (Acta Crystallographica. Section D, Structural Biology, 2023).

One test relates to T1, C. auris.
T1 construct: CBS 12766
As to the kind of experiment: microbe, parasite or virus in culture. Also noted: species or system Candida yeast. The conditions noted are these: Candidozyma auris, 24 h, 50% growth inhibition end point. How it is done: (§1) The antifungal activity of DHFR inhibitors was evaluated against C. albicans (SC 5314), C. glabrata (ATCC 2001) and C. auris (CBS 12766) by the broth microdilution technique (CLSI, 2017[▸]). DHFR inhibitors were serially diluted (1:2) in RPMI 1640 medium buffered with 0.165 M 3-(N-morpholino)propanesulfonic acid in 96-well flat-bottom plates and yeast suspension was added to the wells to obtain a final yeast concentration of 0.5–2.5 × 10^3 CFU ml^−1 and final concentrations of DHFR inhibitors in the range 1–500 µg ml^−1. […] Studies were then performed against Candida spp. yeasts, with the addition of two more antifolates: diaveridine (DIA) and pemetrexed (PMX) (Supplementary Table S1). The inhibitory effect of these inhibitors on the fungal growth of C. albicans, C. glabrata and C. auris was tested using the broth microdilution assay. […] (Supplementary Table S1), including C. auris, supporting the lack of affinity seen in the IC50 assay (Table 2 ▸).

In a further test the test system is T2, C. albicans.
T2 construct: SC 5314
The test is described as follows: microbe, parasite or virus in culture. More on the design: species or system Candida yeast. The conditions noted are these: Candida albicans, 24 h, 50% growth inhibition end point. How it is done:
as §1

The subject of the next test is T3, C. glabrata.
T3 construct: ATCC 2001
The test is described as follows: microbe, parasite or virus in culture. More on the design: species or system Candida yeast. The conditions noted are these: Nakaseomyces glabratus, 24 h, 50% growth inhibition end point. How it is done:
as §1

The target of test [1] is T4, dihydrofolate reductase (CauDHFR) (Candidozyma auris, UniProt A0A0L0P1H8).
T4 construct: gene QG37_02791; His-tag-removed CauDHFR
T4 sequence (A0A0L0P1H8 1-204): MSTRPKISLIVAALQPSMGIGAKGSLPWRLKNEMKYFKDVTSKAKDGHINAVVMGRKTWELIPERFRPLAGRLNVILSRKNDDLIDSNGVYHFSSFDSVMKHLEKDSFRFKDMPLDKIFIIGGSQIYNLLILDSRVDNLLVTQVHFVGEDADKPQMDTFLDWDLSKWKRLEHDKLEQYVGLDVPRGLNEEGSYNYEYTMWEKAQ
The test is described as follows: ([…] Å); DSF shift +[…] °C; NADPH-consumption IC50. The class given is biochemical.

Turning to `COc1ccc(Cc2cnc(N)nc2N)cc1OC` [diaveridine], the MIC with C. auris (read-out: MIC diaveridine) is over 500 µg/mL; with C. albicans (read-out: MIC diaveridine), over 500 µg/mL; in the test with C. glabrata (read-out: MIC diaveridine), 500 µg/mL (≈ 1920 µM).

In the case of `CC1(C)N=C(N)N=C(N)N1c1ccc(Cl)cc1` [CYG, cycloguanil], in test [1], the IC50 stood at 401 µM. For the same compound, the figures for the MIC with C. auris (read-out: MIC cycloguanil), in the test on C. albicans (read-out: MIC cycloguanil) and with C. glabrata (read-out: MIC cycloguanil) were over 500 µg/mL, 500 µg/mL (≈ 1990 µM) and 500 µg/mL (≈ 1990 µM), respectively.

For `CCc1nc(N)nc(N)c1-c1ccc(Cl)cc1` [PYR, pyrimethamine], the MIC in the test on C. auris (read-out: MIC pyrimethamine) was 125 µg/mL (≈ 503 µM); with C. albicans (read-out: MIC pyrimethamine), 62.5 µg/mL (≈ 251 µM); in the test with C. glabrata (read-out: MIC pyrimethamine) it was 62.5 µg/mL (≈ 251 µM).

As to `CN(Cc1cnc2nc(N)nc(N)c2n1)c1ccc(C(=O)N[C@@H](CCC(=O)O)C(=O)O)cc1` [MTX, methotrexate], the MIC with C. auris (read-out: MIC methotrexate) was over 500 µg/mL; in the test on C. albicans (read-out: MIC methotrexate), 250 µg/mL (≈ 550 µM); with C. glabrata (read-out: MIC methotrexate), over 500 µg/mL.

Take `Nc1nc2[nH]cc(CCc3ccc(C(=O)N[C@@H](CCC(=O)O)C(=O)O)cc3)c2c(=O)[nH]1` [pemetrexed]: the MIC with C. auris (read-out: MIC pemetrexed) was over 500 µg/mL; in the test on C. albicans (read-out: MIC pemetrexed) it was 500 µg/mL (≈ 1170 µM); in the test with C. glabrata (read-out: MIC pemetrexed) it was 500 µg/mL (≈ 1170 µM).

As for `COc1cc(Cc2cnc(N)nc2N)cc(OC)c1OC` [TMP, trimethoprim], the values for the MIC in the test with C. auris (read-out: MIC trimethoprim), in the test on C. albicans (read-out: MIC trimethoprim) and with C. glabrata (read-out: MIC trimethoprim) were over 500 µg/mL, 500 µg/mL (≈ 1720 µM) and 500 µg/mL (≈ 1720 µM), respectively.

What is called IC50 is the point on the concentration scale where inhibition reaches its midpoint.
